Where two headings read alike, the source gives them in different places.
Assays:
[1] = Dynamic vapour sorption (DVS) moisture uptake, method 3; assay type: physicochemical; details: for Moisture absorption at 65% RH, Before: before heat treatment
Method: Moisture sorption/desorption data were measured by a Dynamic Vapour Sorption Advantage 1 from Surface Measurement Systems. Prior to analysis the samples were dried for up to about 48 h in desiccators containing phosphorus pentoxide. Approximately 20 mg of sample was placed into a balance pan and loaded into the instrument and the sample was then further dried for a minimum of 500 min in the instrument at 0% RH using a nitrogen purge. The resulting sample weight after the further drying was assigned as the 0% start weight and all weight gains and losses was calculated relative to this start weight. Sorption and desorption isotherms were collected over a range from 0 to 90% relative humidity (RH) using a nitrogen purge at 25° C. The threshold for equilibrium used for analysis was 0.002 to 0.0005 dm/dt.
Furthermore, samples were taken after 24 h of exposure at the indicated elevated temperatures and were subjected to dynamic vapor sorption measurements in accordance with method 3 to determine the hygroscopicity. The moisture uptake was measured at 65% RH. The hygroscopicity is decreased as the moisture absorbed at 65% RH decreases when exposing SNAC polymorphic form A to elevated temperatures for 24 h.

[2] = XRPD FWHM of the peak at 8.7±0.2° 2θ (degree of crystal imperfections), method 1; assay type: physicochemical; details: for FWHM (automatic mode), XRPD peak around 8.7 ± 0.2° 2θ, Before: before heat treatment
Method: (§1) XRPD was performed using a Malvern Panalytical Empyrean diffractometer at ambient conditions. The diffraction pattern was measured at room temperature using an Empyrean Cu LFF HR (45 kV/40 mA) source and PIXcel3D-Medipix3 1×1 detector. The measurement was performed in the range of 2-40° 20 using a scan speed of 0.067335° 2θ/s and a step size of 0.0262606° 2θ. The samples were measured in transmission mode and with a spinner revolution time of 1 second. Approximately 200 mg of sample were placed between two sheets of Kapton Polyimide Thin-film. The measurements were performed using a Soller slit of 0.04 radians and a fixed divergence slit of 0.5° on the incident beam, and a 3 mm Anti scatter slit and a Soller slit of 0.04 radians in the diffracted beam.
The degree of crystal imperfections was assessed by use of the FWHM as more crystal imperfections might cause peak broadening and lower peak height, which leads to higher FWHM values due to fewer lattice planes with identical orientation contributing to the diffraction peak. Oppositely, in the absence of crystal imperfections, lattice planes with identical orientation increase and result in narrower and higher diffraction peaks leading to smaller FWHM values. The FWHM was calculated using the characteristic peak at 8.7±0.2° 2θ by finding the apex of the peak and measuring the height of the peak applying the x-axis as the baseline (automatic mode) (see FIG. 11) or applying a baseline spanning the two surrounding troughs (manual mode) (see FIG. 12). This value is then divided in half to find the half height. Hereafter the width of the peak at that half height is measured and reported in ° 2θ. Alternatively, the peak at 6.0±0.2° 2θ may also be used to calculate the FWHM.
(§2) Samples from a batch of SNAC polymorphic form A (Batch 5) with a FWHM of 0.97° 2θ (automatic mode) and a moisture uptake of 1.98% at 65% RH from the beginning were heated to 90, 100, 110, 120, 130, and 140° C., respectively, in a tray oven. The samples were exposed to their respective temperatures for up to 72 h. The sample size was small enough to ensure that the samples equilibrated completely, within a few of minutes, to the oven temperature. Samples were taken during the 72 h of elevated temperature exposure and subjected to XRPD measurements in accordance with method 1 to determine the polymorphic form and impact on crystal imperfections using FWHM with the x-axis as the baseline (automatic mode).
(§3) Samples from different batches of SNAC polymorphic form A were subjected to a heat treatment in a tray oven and the sample size was small enough to ensure that the samples equilibrated completely and within a couple of minutes to the oven temperature. Samples were taken from the batches before the heat treatment and after the heat treatment and subjected to XRPD measurements in accordance with method 1 to determine the polymorphic form and impact on crystal imperfections using FWHM with the x-axis as the baseline (auto mode). Furthermore, samples were also subjected to DVS measurements in accordance with method 3 to determine the impact of the heat treatment on the hygroscopicity.

[3] = Polymorphic form determined by XRPD, method 1; assay type: physicochemical; details: after heat treatment 150° C. for 1 h
Method: as §1
The polymorphic form of the sample was determined by comparison of the diffractogram obtained for the sample with reference diffractograms for the SNAC polymorphs and solvates.
as §2, §3

[4] = XRPD with moisture chamber: relative humidity for onset of conversion of form A to trihydrate form F, method 2; assay type: physicochemical; details: increasing RH at ambient conditions
From the text: The moisture chamber allows for controlling the humidity and temperature of the samples during XRPD measurements.
Samples from different batches of SNAC polymorphic form A were subjected to increasing levels of relative humidity at ambient conditions inside a humidity chamber with the possibility of simultaneous determination of the polymorphic form in accordance with the XRPD method 2. The diffractograms were visually inspected for the appearance of characteristic diffraction peaks for the SNAC polymorphic form F in order to determine at which relative humidity polymorphic conversion of form A to F started.

[5] = Dynamic vapour sorption (DVS) moisture uptake, method 3; assay type: physicochemical; details: not ground
[6] = heat treatment: None; derived from example 1 and figures of WO 2005/107462; cited from earlier work
[7] = heat treatment: None; derived from example 1 and figures of WO 2005/107462; cited from earlier work; remark: listed apart in the source
[8] = after heat treatment 115° C. for 24 h
[9] = after heat treatment 150° C. for 1 h
[10] = after heat treatment 120° C. for 20 h
[11] = after heat treatment 120° C. for 24 h
[12] = heat treatment 115° C. for 24 h
[13] = ground in a mortar with pestle for about 10 min
[14] = made per example 2 of WO 2008/028859, after drying at 90° C. for 18 h

| Compound | Moisture absorption at 65% RH, Before [1] | FWHM (automatic mode), XRPD peak around 8.7 ± 0.2° 2θ, Before [2] | Moisture absorption at 65% RH ([1]; heat treatment: None) | FWHM (manual mode) ([2]; heat treatment: None) | Onset of trihydrate conversion (form A to form F) ([4]; heat treatment: None) | other results |
| --- | --- | --- | --- | --- | --- | --- |
| O=C([O-])CCCCCCCNC(=O)c1ccccc1O.[Na+] [Batch 1, monosodium N-[8-(2-hydroxybenzoyl)-amino]caprylate] | 2.66% | 1.08 ° 2θ | – | – | – | Moisture absorption at 65% RH, After [1, 8]: 1.26%; FWHM (automatic mode), XRPD peak around 8.7 ± 0.2° 2θ, After [2, 8]: 0.60 ° 2θ |
| O=C([O-])CCCCCCCNC(=O)c1ccccc1O.[Na+] [Batch 2, monosodium N-[8-(2-hydroxybenzoyl)-amino]caprylate] | 2.90% | 1.21 ° 2θ | 2.90% | 0.84 °2θ | 70 % RH | Polymorphic form, After [3]: A & B; Moisture absorption at 65% RH, After [1, 9]: 1.04%; FWHM (automatic mode), XRPD peak around 8.7 ± 0.2° 2θ, After [2, 9]: 0.42 ° 2θ |
| O=C([O-])CCCCCCCNC(=O)c1ccccc1O.[Na+] [Batch 3, monosodium N-[8-(2-hydroxybenzoyl)-amino]caprylate] | – | – | 1.95% | 0.66 °2θ | 75 % RH | – |
| O=C([O-])CCCCCCCNC(=O)c1ccccc1O.[Na+] [Batch 4, monosodium N-[8-(2-hydroxybenzoyl)-amino]caprylate] | 0.83% | 0.79 ° 2θ | – | – | – | Moisture absorption at 65% RH, After [1, 10]: 0.84%; FWHM (automatic mode), XRPD peak around 8.7 ± 0.2° 2θ, After [2, 10]: 0.58 ° 2θ |
| O=C([O-])CCCCCCCNC(=O)c1ccccc1O.[Na+] [Batch 5, monosodium N-[8-(2-hydroxybenzoyl)-amino]caprylate] | 1.98% | 0.97 ° 2θ | – | – | – | Moisture absorption at 65% RH, After [1, 11]: 0.94%; FWHM (automatic mode), XRPD peak around 8.7 ± 0.2° 2θ, After [2, 11]: 0.58 ° 2θ |
| O=C([O-])CCCCCCCNC(=O)c1ccccc1O.[Na+] [Batch 6, monosodium N-[8-(2-hydroxybenzoyl)-amino]caprylate] | – | – | 1.81% | 0.65 °2θ | 75 % RH | – |
| O=C([O-])CCCCCCCNC(=O)c1ccccc1O.[Na+] [Batch 7, monosodium N-[8-(2-hydroxybenzoyl)-amino]caprylate] | – | – | 2.06% | 0.61 °2θ | 70 % RH | – |
| O=C([O-])CCCCCCCNC(=O)c1ccccc1O.[Na+] [Batch 8, monosodium N-[8-(2-hydroxybenzoyl)-amino]caprylate] | – | – | 2.51% | 0.82 °2θ | 70 % RH | Moisture absorption at 65% RH [1, 12]: 0.99%; FWHM (manual mode) [2, 12]: 0.47 °2θ; Onset of trihydrate conversion (form A to form F) [4, 12]: 80 % RH |
| O=C([O-])CCCCCCCNC(=O)c1ccccc1O.[Na+] [Batch 9, monosodium N-[8-(2-hydroxybenzoyl)-amino]caprylate] | – | – | 1.29% | 0.60 °2θ | 80 % RH | Moisture absorption at 65% RH [1, 12]: 0.98%; FWHM (manual mode) [2, 12]: 0.52 °2θ; Onset of trihydrate conversion (form A to form F) [4, 12]: 80 % RH |
| O=C([O-])CCCCCCCNC(=O)c1ccccc1O.[Na+] [Batch 10, monosodium N-[8-(2-hydroxybenzoyl)-amino]caprylate] | – | – | – | – | – | Moisture absorption at 60% RH [1, 13]: 2.99%; FWHM (auto mode) [2, 13]: 1.00 °2θ; FWHM (auto mode) ([2]; not ground): 0.79 °2θ; Moisture absorption at 60% RH [5]: 1.19% |
| O=C([O-])CCCCCCCNC(=O)c1ccccc1O.[Na+] [Batch 11, monosodium N-[8-(2-hydroxybenzoyl)-amino]caprylate, reference compound] | – | – | – | – | – | Moisture absorption at 65% RH [1, 14]: 2.62%; FWHM (auto mode) [2, 14]: 1.12 °2θ |
| O=C([O-])CCCCCCCNC(=O)c1ccccc1O.[Na+] [Batch X, monosodium N-[8-(2-hydroxybenzoyl)-amino]caprylate] | – | – | – | – | – | Moisture absorption at 65% RH [6]: 1.50%; FWHM (manual mode) [7]: 0.90 °2θ |

— patent publication US20240294466A1, “SODIUM N-(8-(2- HYDROXYBENZOYL)AMINO)CAPRYLATE P[…] A” (Novo Nordisk A/S, priority 2021, published 2024)
